Experimental data from ChEMBL document CHEMBL1201862, “PubChem BioAssay data set” (2004).
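Results reflect a 48-hour exposure of cells in 96-well plates to compound at five concentrations. At the GI50, growth is halved.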 Calls of active or inactive are those of the source. No stated cut-off is given here; in the data, active = GI50 up to about 1.1 µM and inactive = higher.

Assays:
Experiment in all cases: NCI anticancer screen, dose series, 48 h
[1] = system: HOP-92
[2] = system: DU-145
[3] = system: SN12C
[4] = system: COLO 205
[5] = system: A498
[6] = system: NCI-H522
[7] = system: HCT-116
[8] = system: HCC 2998
[9] = system: SNB-75
[10] = system: MCF7
[11] = system: MDA-MB-435
[12] = system: SF-268
[13] = system: OVCAR-5
[14] = system: PC-3
[15] = system: CCRF-CEM
[16] = system: A549
[17] = system: SNB-19
[18] = system: UACC-257
[19] = system: OVCAR-4
[20] = system: CAKI-1

Row | SMILES | GI50 [1] | GI50 [2] | GI50 [3] | GI50 [4] | GI50 [5] | GI50 [6] | GI50 [7] | GI50 [8] | GI50 [9] | GI50 [10] | GI50 [11] | GI50 [12] | GI50 [13] | GI50 [14] | GI50 [15] | GI50 [16] | GI50 [17] | GI50 [18] | GI50 [19] | GI50 [20]
1 | CCCC(=O)NC1CCc2cc(OC)c(OC)c(OC)c2-c2ccc(OC)c(=O)cc21 (stereo unspecified) | 0.447 µM (active) | 0.00117 µM (active) | 0.000782 µM (active) | 0.000235 µM (active) | 0.00807 µM (active) | 0.000442 µM (active) | 0.000361 µM (active) | 0.00186 µM (active) | 1.82 µM (inactive) | 0.000257 µM (active) | 0.000296 µM (active) | 0.00157 µM (active) | 0.00312 µM (active) | 0.000731 µM (active) | 0.00028 µM (active) | 0.00538 µM (active) | 0.000519 µM (active) |  |  | 
2 | O=C1NC(N2CCOCC2)=N/C1=C\c1ccc(O)cc1 | > 100 µM (inactive) | > 100 µM (inactive) | > 100 µM (inactive) | > 100 µM (inactive) |  | 16.4 µM (inactive) | > 100 µM (inactive) | > 100 µM (inactive) | 15.7 µM (inactive) | > 100 µM (inactive) | > 100 µM (inactive) | > 100 µM (inactive) | > 100 µM (inactive) | > 100 µM (inactive) | > 100 µM (inactive) | > 100 µM (inactive) | > 100 µM (inactive) | > 100 µM (inactive) | > 100 µM (inactive) | > 100 µM (inactive)
3 | CC(=O)NC1C(Sc2ncn(C3OC(CO)C(O)C(O)C3NC(C)=O)n2)OC(CO)C(O)C1O (stereo unspecified) | > 100 µM (inactive) | > 100 µM (inactive) | > 100 µM (inactive) | > 100 µM (inactive) | > 100 µM (inactive) | > 100 µM (inactive) | > 100 µM (inactive) | > 100 µM (inactive) |  | > 100 µM (inactive) | > 100 µM (inactive) | > 100 µM (inactive) | > 100 µM (inactive) | > 100 µM (inactive) | 29 µM (inactive) | > 100 µM (inactive) | > 100 µM (inactive) | > 100 µM (inactive) | > 100 µM (inactive) | > 100 µM (inactive)
4 | CCOC(=O)/C(=C\c1cccc(C)c1)C(C)=O | 6.7 µM (inactive) | 16.7 µM (inactive) | 17.1 µM (inactive) | 19.2 µM (inactive) | 13.4 µM (inactive) | 10 µM (inactive) | 16.7 µM (inactive) | 15.1 µM (inactive) | 4.94 µM (inactive) | 13.2 µM (inactive) | 16.3 µM (inactive) | 15.2 µM (inactive) | 10.9 µM (inactive) | 10.5 µM (inactive) |  | 30 µM (inactive) | 17.7 µM (inactive) | 14.3 µM (inactive) | 19.2 µM (inactive) | 20.9 µM (inactive)
5 | NNC(=O)c1cc([N+](=O)[O-])ccc1NC(=O)C12CC3CC(CC(C3)C1)C2 | 12.9 µM (inactive) | 20 µM (inactive) | 8.63 µM (inactive) | 6.04 µM (inactive) |  | 3 µM (inactive) | 7.74 µM (inactive) | 10.5 µM (inactive) |  | 23.1 µM (inactive) | 14.3 µM (inactive) | 3.82 µM (inactive) | 13.4 µM (inactive) | 13 µM (inactive) | 2.27 µM (inactive) | 17.8 µM (inactive) | 2.98 µM (inactive) | 15.2 µM (inactive) | 2.62 µM (inactive) | 5.7 µM (inactive)
6 | COc1cc(-c2oc(/C=N/c3ccccc3)c([N+](=O)[O-])c2-c2ccc(O)c(OC)c2)ccc1O | 13.8 µM (inactive) | 20.1 µM (inactive) | 27 µM (inactive) | 20.3 µM (inactive) |  | 12.5 µM (inactive) | 18.4 µM (inactive) | 15 µM (inactive) | 11.5 µM (inactive) | 23.9 µM (inactive) | 23.6 µM (inactive) | 19.7 µM (inactive) | 35.5 µM (inactive) | 18.7 µM (inactive) | 6.31 µM (inactive) | 39.2 µM (inactive) | 22.4 µM (inactive) | 27 µM (inactive) | 19.1 µM (inactive) | 21.8 µM (inactive)
7 | CCCCCCCCC[C@@H]1C[C@@H]2CCC3C(C(=O)OC)=C(C)N=C(N1)N32 (stereo partly specified) | 10 µM (inactive) | 6.41 µM (inactive) | 14.6 µM (inactive) | 3.37 µM (inactive) |  | 2.96 µM (inactive) | 4.25 µM (inactive) | 2.86 µM (inactive) | 5.71 µM (inactive) | 3.72 µM (inactive) | 2.25 µM (inactive) | 5.05 µM (inactive) | 18 µM (inactive) | 3.64 µM (inactive) | > 100 µM (inactive) | 12.3 µM (inactive) | 4.18 µM (inactive) | 10.5 µM (inactive) | 6.93 µM (inactive) | 17.3 µM (inactive)
8 | CCNc1ncnc2nn[nH]c12 | > 100 µM (inactive) | > 100 µM (inactive) | > 100 µM (inactive) | > 100 µM (inactive) | > 100 µM (inactive) | > 100 µM (inactive) | > 100 µM (inactive) | > 100 µM (inactive) | > 100 µM (inactive) | > 100 µM (inactive) | > 100 µM (inactive) |  |  | > 100 µM (inactive) | > 100 µM (inactive) | > 100 µM (inactive) | > 100 µM (inactive) | > 100 µM (inactive) | > 100 µM (inactive) | > 100 µM (inactive)
9 | Nn1c(CNc2ccc(-c3nnc(Nc4ccc(Cl)cc4)n3N)cc2)nnc1Nc1ccc(Cl)cc1 | > 100 µM (inactive) | > 100 µM (inactive) | > 100 µM (inactive) | > 100 µM (inactive) | > 100 µM (inactive) | 75.5 µM (inactive) | 37.1 µM (inactive) | > 100 µM (inactive) | > 100 µM (inactive) | 61.1 µM (inactive) | > 100 µM (inactive) | > 100 µM (inactive) | > 100 µM (inactive) | > 100 µM (inactive) |  | > 100 µM (inactive) | > 100 µM (inactive) | > 100 µM (inactive) | > 100 µM (inactive) | > 100 µM (inactive)
10 | Cc1ccc(C)c(COCCOCn2cc(Br)c(N)nc2=O)c1 | > 100 µM (inactive) | > 100 µM (inactive) | > 100 µM (inactive) | > 100 µM (inactive) | > 100 µM (inactive) | > 100 µM (inactive) | > 100 µM (inactive) | > 100 µM (inactive) | > 100 µM (inactive) | > 100 µM (inactive) | > 100 µM (inactive) | > 100 µM (inactive) | > 100 µM (inactive) | > 100 µM (inactive) | > 100 µM (inactive) | > 100 µM (inactive) | > 100 µM (inactive) | > 100 µM (inactive) |  | > 100 µM (inactive)
11 | C[P+](c1ccccc1)(c1ccc(Cl)cc1)c1ccc(Cl)cc1 | 10.3 µM (inactive) | 18.4 µM (inactive) | 15.6 µM (inactive) | 10.4 µM (inactive) | 27.5 µM (inactive) | 12.9 µM (inactive) | 6.93 µM (inactive) | 8.61 µM (inactive) | 14.4 µM (inactive) | 26.9 µM (inactive) | 5.45 µM (inactive) | 38.6 µM (inactive) | 18.2 µM (inactive) | 20.2 µM (inactive) |  | 32.4 µM (inactive) | 13 µM (inactive) | 8.11 µM (inactive) | 13.2 µM (inactive) | 
12 | O=C(C/C(=N/O)C(F)(F)F)c1cccs1 | > 100 µM (inactive) | > 100 µM (inactive) | > 100 µM (inactive) | > 100 µM (inactive) | > 100 µM (inactive) |  | > 100 µM (inactive) | > 100 µM (inactive) | > 100 µM (inactive) | > 100 µM (inactive) | > 100 µM (inactive) | > 100 µM (inactive) | > 100 µM (inactive) | > 100 µM (inactive) | > 100 µM (inactive) | > 100 µM (inactive) | 50 µM (inactive) | > 100 µM (inactive) | > 100 µM (inactive) | > 100 µM (inactive)
13 | COc1ccc(/N=C2/C(=N/c3ccc(OC)cc3)N(c3ccccc3)C(=S)N2N=C=C2Sc3ccccc3N2C)cc1 | 47.3 µM (inactive) | > 100 µM (inactive) | > 100 µM (inactive) | > 100 µM (inactive) |  | > 100 µM (inactive) | 88.1 µM (inactive) | > 100 µM (inactive) |  | > 100 µM (inactive) | > 100 µM (inactive) | > 100 µM (inactive) | > 100 µM (inactive) | > 100 µM (inactive) |  | > 100 µM (inactive) | > 100 µM (inactive) | > 100 µM (inactive) |  | > 100 µM (inactive)
14 | COc1ccc(-c2csc3c2-n2cccc2C3=O)cc1 | 3.12 µM (inactive) | 0.175 µM (active) | 0.0885 µM (active) | 0.215 µM (active) | 0.698 µM (active) |  | 0.0461 µM (active) | 0.344 µM (active) | 0.0964 µM (active) | 0.18 µM (active) | 0.0132 µM (active) | 1.75 µM (inactive) | 34 µM (inactive) | < 0.0367 µM (active) | 0.0242 µM (active) | 0.159 µM (active) | 0.0745 µM (active) |  | 2.07 µM (inactive) | 0.268 µM (active)
15 | CCOS(C)(=O)=O [METHANESULFONIC ACID ETHYL ESTER] | 17 µM (inactive) | > 100 µM (inactive) | > 100 µM (inactive) | > 100 µM (inactive) | > 100 µM (inactive) | > 100 µM (inactive) | > 100 µM (inactive) | > 100 µM (inactive) |  | > 100 µM (inactive) | > 100 µM (inactive) | > 100 µM (inactive) | > 100 µM (inactive) | > 100 µM (inactive) | > 100 µM (inactive) | > 100 µM (inactive) | > 100 µM (inactive) | > 100 µM (inactive) | > 100 µM (inactive) | > 100 µM (inactive)
